Test results reported in the supplement of paper PMC10307832.

Columns and labels:
Experiment in all cases: relative viability (nuclei count vs DMSO), 5 days (fraction); higher = more cells survive
Mirin + Pemetrexed = compound: N=C1NC(=O)/C(=C/c2ccc(O)cc2)S1 [Mirin] + Nc1nc2[nH]cc(CCc3ccc(C(=O)N[C@@H](CCC(=O)O)C(=O)O)cc3)c2c(=O)[nH]1 [Pemetrexed] (partner 0.2 µM)
Method in brief: (§1)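 Relative viability divides the nuclei count in treated wells by that in vehicle wells. Lung cancer cell lines were seeded in 1536-well plates, dosed by pin tool the next day, and fixed and stained after 5 days in one step with final 0.05% Triton X-100, 1% formaldehyde and 1 ug/ml Hoechst. Dosing was a single drug or a fixed anchor-drug dose plus five library-drug doses (not always all listed) in √10 steps, and values are medians of duplicate plates imaged at 4×.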

[1] = compound: CCn1c(-c2nonc2N)nc2cnc(Oc3cccc(NC(=O)c4ccc(OCCN5CCOCC5)cc4)c3)cc21 + Nc1nc2[nH]cc(CCc3ccc(C(=O)N[C@@H](CCC(=O)O)C(=O)O)cc3)c2c(=O)[nH]1 [Pemetrexed] (partner 0.2 µM)
Method in brief: as §1

Mirin + Dasatinib = compound: N=C1NC(=O)/C(=C/c2ccc(O)cc2)S1 [Mirin] + Cc1nc(Nc2ncc(C(=O)Nc3c(C)cccc3Cl)s2)cc(N2CCN(CCO)CC2)n1 [Dasatinib] (partner 0.075 µM)
Method in brief: as §1

[2] = compound: CCn1c(-c2nonc2N)nc2cnc(Oc3cccc(NC(=O)c4ccc(OCCN5CCOCC5)cc4)c3)cc21 + COc1cc2c(Oc3ccc(NC(=O)C4(C(=O)Nc5ccc(F)cc5)CC4)cc3F)ccnc2cc1OCCCN1CCOCC1 [Foretinib] (partner 0.25 µM)
Method in brief: as §1

Cell Line	relative viability (Mirin + Pemetrexed; first compound 0.25 µM)	relative viability (Mirin + Pemetrexed; first compound 0.7906 µM)	relative viability (Mirin + Pemetrexed; first compound 2.5 µM)	relative viability (Mirin + Pemetrexed; first compound 7.906 µM)	relative viability (Mirin + Pemetrexed; first compound 25 µM)	relative viability ([1]; first compound 0.04 µM)	relative viability ([1]; first compound 0.1265 µM)	relative viability ([1]; first compound 0.4 µM)	relative viability ([1]; first compound 1.265 µM)	relative viability ([1]; first compound 4 µM)	relative viability (Mirin + Dasatinib; first compound 0.25 µM)	relative viability (Mirin + Dasatinib; first compound 0.7906 µM)	relative viability (Mirin + Dasatinib; first compound 2.5 µM)	relative viability (Mirin + Dasatinib; first compound 7.906 µM)	relative viability (Mirin + Dasatinib; first compound 25 µM)	relative viability ([2]; first compound 0.04 µM)	relative viability ([2]; first compound 0.1265 µM)	relative viability ([2]; first compound 1.265 µM)	relative viability ([2]; first compound 4 µM)	relative viability ([2]; first compound 0.4 µM)
NCI-H441	0.227	0.262	0.251	0.261	0.251	0.261	0.26	0.251	0.243	0.252	0.662	0.556	0.622	0.59	0.439	1.12	1.04	0.859	0.79	
NCI-H460	0.0601	0.0695	0.0719	0.0635	0.0557	0.0568	0.0572	0.0592	0.0521	0.0564	0.566	0.487	0.468	0.457	0.38	1.06	0.902	0.426	0.16	0.978
NCI-H520	0.654	0.591	0.7	0.545	0.449	1.01	0.662	0.634	0.372	0.336	0.192	0.164	0.282	0.172	0.249	0.962	0.994	0.603	0.429	0.755
NCI-H596	0.493	0.542	0.437	0.521	0.539	0.438	0.484	0.462	0.451	0.48	0.643	0.596	0.559	0.525	0.569	0.961	0.873	0.742	0.767	0.814
NCI-H647	0.198	0.161	0.146	0.172	0.111	0.21	0.16	0.143	0.122	0.137	0.152	0.177	0.216	0.174	0.132	1.27	1.09	0.668	0.715	0.913
NCI-H650	1.05	0.865	0.928	0.711	0.94	1.05	0.799	0.454	0.425	0.458	0.455	0.391	0.397		0.506	1.12	0.774	0.366	0.438	0.531
NCI-H661	0.906	1.01	0.942	0.953	0.822	0.922	0.994	0.893	0.74	0.513	0.985	0.737	0.884	0.734	0.697	0.966	0.846	0.801	0.522	0.925
NCI-H838	0.235	0.259	0.258	0.236	0.188	0.252	0.218	0.187	0.179	0.156	0.275	0.277	0.309	0.394	0.346	0.771	0.7	0.378	0.371	0.562
NCI-H1355	1.06	1.09	1.08	1	1.11	1.12	1.05	0.769	0.835	0.581	0.766	0.724	0.691	0.564	0.648	1.05	0.948	0.955	1	1.03
NCI-H1395	0.898		0.847	0.829	0.618	0.961	0.825	0.736	0.519	0.434	0.439	0.434	0.429	0.376	0.418	1.03	0.95	0.501	0.561	0.975
NCI-H1437	0.313	0.351	0.377	0.345	0.31	0.324	0.317	0.297	0.216	0.201	0.405	0.41	0.386	0.309	0.347	1.26	1.31	1.06	0.865	1.23
NCI-H1563	0.854	0.898	0.98	0.745	0.769	0.82	0.769	0.694	0.595	0.734	0.536	0.471	0.481	0.42	0.428	0.792	0.786	0.85	0.666	0.769
NCI-H1650	0.339	0.382	0.377	0.324	0.359	0.343	0.326	0.389	0.334	0.343	0.307	0.294	0.306	0.256	0.231	1.19	1.32	1.23	0.969	1.49
NCI-H1651	0.241	0.532	0.599	0.532	0.612	0.714	0.693	0.578	0.312	0.471	0.417	0.382	0.501	0.355	0.376	1	0.963	0.662	0.455	0.959
NCI-H1666	0.821	0.805	0.827	0.875	0.841	0.875	0.859	0.926	0.828	0.606	0.93	0.807	0.846	0.709	0.681	1.1	1.11	0.767	0.442	1.2
NCI-H1734	0.441	0.44	0.414	0.355	0.346	0.397	0.401	0.307	0.281	0.29	0.484	0.436	0.469	0.45	0.438	0.97	0.882	0.599	0.44	0.69

Cell Line	relative viability (Mirin + Pemetrexed; first compound 0.25 µM)	relative viability (Mirin + Pemetrexed; first compound 0.7906 µM)	relative viability (Mirin + Pemetrexed; first compound 2.5 µM)	relative viability (Mirin + Pemetrexed; first compound 7.906 µM)	relative viability (Mirin + Pemetrexed; first compound 25 µM)	relative viability ([1]; first compound 0.04 µM)	relative viability ([1]; first compound 0.1265 µM)	relative viability ([1]; first compound 0.4 µM)	relative viability ([1]; first compound 1.265 µM)	relative viability ([1]; first compound 4 µM)	relative viability (Mirin + Dasatinib; first compound 0.25 µM)	relative viability (Mirin + Dasatinib; first compound 0.7906 µM)	relative viability (Mirin + Dasatinib; first compound 2.5 µM)	relative viability (Mirin + Dasatinib; first compound 7.906 µM)	relative viability (Mirin + Dasatinib; first compound 25 µM)	relative viability ([2]; first compound 0.04 µM)	relative viability ([2]; first compound 0.1265 µM)	relative viability ([2]; first compound 1.265 µM)	relative viability ([2]; first compound 4 µM)	relative viability ([2]; first compound 0.4 µM)
NCI-H1755	0.38	0.402	0.404	0.348	0.384	0.46	0.41	0.439	0.364	0.355	0.396	0.383	0.391	0.389	0.436	0.907	0.957	0.619	0.645	0.916
NCI-H1793	0.862		0.895	1.11	0.977	0.542	0.754	0.69	0.512	0.502	0.481		0.391	0.409	0.344	0.712	0.572	0.76	0.725	0.734
NCI-H1915	0.469	0.484	0.504	0.434	0.433	0.497	0.494	0.448	0.183	0.174	0.308		0.332	0.342	0.31	1.09	1.14	1.08	1.12	1.1
NCI-H1944	0.636	0.627	0.598	0.558	0.598	0.654	0.632	0.577	0.367	0.301	0.218	0.244	0.2	0.218	0.224	0.772	0.869	0.861	0.658	0.978
NCI-H1975	0.324	0.256	0.272	0.274	0.252	0.29	0.269	0.23	0.188	0.178	0.437	0.482	0.384	0.417	0.354	0.869	0.717	0.412	0.281	0.664
NCI-H1993	0.625	0.633	0.578	0.541	0.584	0.649	0.616	0.526	0.579	0.526	0.518		0.678	0.455	0.556	0.84	0.765	0.795	0.723	0.659
NCI-H2009	1.05	1.11	1.01	0.964	1.16	0.916	0.817	0.757	0.607	0.492	0.292	0.341	0.323	0.227	0.139	1.07	0.974	0.642	0.356	0.921
NCI-H2023	0.254	0.258	0.218	0.247	0.156	0.231	0.155	0.214	0.163	0.153	0.562	0.541	0.548	0.463	0.335	0.897	0.988	0.71	0.451	1.03
NCI-H2085	0.919	1.03	0.932	0.925	0.932	0.888	0.591	0.601	0.591	0.664	0.229	0.207	0.28	0.252	0.237	1.2	1.15	0.858	0.806	0.93
NCI-H2087	0.69	0.715	0.66	0.678	0.708	0.777	0.653	0.642	0.603	0.596	1.06	0.869	0.752	0.958	0.677	1.1	0.911	0.876	0.695	1.01
NCI-H2126	0.754	0.574	0.758	0.855	0.686	0.8	0.715	0.51	0.765	0.642	0.631	0.58	0.601	0.517	0.514	1.22	1.08		1.29	
NCI-H2170	0.249	0.282	0.268	0.263	0.28	0.263	0.263	0.272	0.223	0.244	0.551	0.498	0.519	0.489	0.468	1	0.99	0.939	0.848	0.997
NCI-H2228	0.394	0.301	0.291	0.315	0.364	0.328	0.289	0.302	0.285	0.333	0.594	0.458	0.516	0.448	0.412	1.28	0.946	0.744	0.731	1.03
NCI-H2342	0.728	0.801	0.769		0.735	0.75	0.782	0.736	0.474	0.76	0.35	0.342	0.327	0.289	0.317	1.16	1.18	0.771	0.917	1.01
NCI-H2347	0.424	0.474	0.47	0.422	0.473	0.438	0.424	0.399	0.33	0.371	0.336	0.316	0.344	0.287	0.273	1.08	1.27	0.459	0.585	1.26
NCI-H2405	1.1		1.16	1.14	1.07	1.01	0.395	0.315	0.247	0.284	0.195	0.252	0.206	0.206	0.192	1.23	0.999	0.342	0.384	0.485
